According to publication PMC3827198, “Characterisation of AmphiAmR11, an Amphioxus (Branchiostoma floridae) D2-Dopamine-Like G Protein-Coupled Receptor” (PLoS ONE, 2013):
Structures can show the parent of a compound that is named as a salt.

Assays:
AmphiAmR11 [1] = target: T1, AmphiAmR11 (Branchiostoma floridae, UniProt A0PF35); assay: Block of dopamine-induced ERK1/2 activation in AmphiAmR11-expressing CHO-K1 cells by antagonists; format: cell-based; conditions: 1 µM antagonist, 10 nM dopamine, 5 min
AmphiAmR11 [2] = target: T1, AmphiAmR11; assay: ERK1/2 phosphorylation in AmphiAmR11-expressing CHO-K1 cells (Western blotting); format: cell-based; conditions: for Duration of ERK1/2 phosphorylation response after the peak: 1 µM tyramine (level by 30 minutes) or 30 nM dopamine; for Time of peak ERK1/2 phosphorylation: 1 µM tyramine or 30 nM dopamine; for Effect on ERK1/2 phosphorylation at 10 nM: 10 nM biogenic amine
AmphiAmR11 [3] = target: T1, AmphiAmR11; assay: Block of tyramine-induced inhibition of forskolin-stimulated cAMP levels in AmphiAmR11-expressing CHO-K1 cells; format: cell-based; conditions: 1 μM antagonist, 30 nM tyramine, 10 µM forskolin
AmphiAmR11 [4] = target: T1, AmphiAmR11; assay: Inhibition of forskolin-stimulated cAMP levels in AmphiAmR11-expressing CHO-K1 cells (agonist mode); format: cell-based; conditions: for Effect on forskolin-stimulated cAMP levels at 1 µM: 1 µM agonist
Method: CHO-K1 cells were maintained in Ham’s F-12 nutrient media (Invitrogen Life Sciences) supplemented with 10% charcoal-stripped foetal bovine serum (CS-FBS) (Hyclone, Cramlington, UK), 50 U/μg penicillin/streptomycin and 4 mM L-glutamine (Invitrogen Life Sciences) in 5% CO2 at 37°C. Stably transfected cell lines were generated by the transfection of CHO-K1 cells using Lipofectamine (Invitrogen Life Sciences) as described previously [8, 9].
cAMP levels in stably transfected CHO-K1 cells were determined as described previously [8, 9, 21], except 100 µM isobutylmethylxanthine (IBMX) was used. cAMP levels are represented as a percentage of basal samples unless otherwise stated. Student’s T-test (two-tailed and unpaired) was used to test for significance. Unless otherwise stated, all data are shown as mean ± SEM. Each data point plotted was the mean of data obtained from at least three experiments. Within each experiment three separate replicate wells were analysed for each condition and the cAMP assays on each of the wells was carried out in duplicate.
Forskolin was used both to increase basal cAMP levels to make it easier to detect increases and decreases in cAMP levels in the same experiments and also to potentiate responses to agonists to more accurately determine their threshold effects [see 22]. A non-saturating 10 µM concentration of forskolin was used.
Figure 1 Effect of biogenic amines and synthetic agonists on forskolin-stimulated cAMP levels in AmphiAmR11-expressing CHO-K1 cells. Cells were pre-incubated with 100 µM IBMX for 20 min, followed by incubation with 10 µM forskolin and 100 µM IBMX in the presence of increasing concentrations of various biogenic amines (A) or synthetic agonists (B) for a further 20 min. Data are expressed as the mean ± SEM. n ≥ 3.

AmphiAmR11 [5] = target: T1, AmphiAmR11; assay: Calcium mobilisation in AmphiAmR11-expressing CHO-K1 cells (Fura-2, percentage of responding cells per field of view); format: cell-based; conditions: for Calcium response at 10 nM: 10 nM biogenic amine, compared with dopamine
Method: Stably transfected CHO-K1 cells were assayed for changes in intracellular calcium levels using an Olympus Cell^R imaging system and the fluorescent indicator Fura-2, as described previously, with modifications described by Bayliss et al.. At 1 minute into the experiment, a buffer control was added and at 2 minutes into the experiment, the specified concentration of agonist was added. A single coverslip of cells was used per concentration of agonist and the percentage of cells that responded per field of view was calculated. The results from each coverslip gave an n of 1 and each agonist concentration was repeated at least three times on different days.
Figure 6 Effect of biogenic amines and calcium pathway inhibitors on calcium mobilisation in AmphiAmR11-expressing CHO-K1 cells. AmphiAmR11-expressing cells were exposed to increasing concentrations (A) or 10 nM (B) of biogenic amines for 3 minutes and the number of responding cells per field of view were calculated. Data are expressed as the mean ± SEM. n ≥ 3. FOV, field of view; DA, dopamine; TA, tyramine; NA, noradrenaline; Adr, adrenaline; OA, octopamine.

AmphiAmR11 [6] = target: T1, AmphiAmR11; assay: cell-based; format: cell-based; conditions: for Concentrations coupling AmphiAmR11 to an increase in cAMP levels: after pertussis toxin; for Effect on forskolin-stimulated cAMP levels following pertussis toxin treatment: amines at 100 µM, 16 hours; for Effect on forskolin-stimulated cAMP levels following pertussis toxin treatment / Concentration dependence of increase in forskolin-stimulated cAMP levels following pertussis toxin: pertussis toxin 200 ng/mL; for Concentration dependence of increase in forskolin-stimulated cAMP levels following pertussis toxin: 16 h, up to 100 µM
[7] = system: dopamine-induced ERK1/2 activation; assay: Effect of pertussis toxin and signalling inhibitors on agonist-induced ERK1/2 activation in AmphiAmR11-expressing CHO-K1 cells; format: cell-based, Chinese hamster; conditions: 10 µM inhibitor, 10 nM dopamine, 5 minutes
Method: Phospho-extracellular signal-related kinase (Phospho-ERK) levels were determined essentially as described previously. Minor modifications have been described. ERK1/2 phosphorylation levels were quantified by densitometry. The developed films were scanned in and analysed using the software program, Aida. The data generated by Aida was then processed using Microsoft Excel. Values for the kinase expression and activity levels were defined as 100% in the control samples. Student’s T-test (two-tailed and unpaired) was used to test for significance.
Figure 5 Effect of pertussis toxin and signalling inhibitors on dopamine-induced ERK1/2 activation in AmphiAmR11-expressing CHO-K1 cells. For the pertussis toxin experiment, AmphiAmR11-expressing CHO-K1 cells were pre-incubated with pertussis toxin (200 ng/ml) for 16 hours prior to serum-starvation for 2 hours in the absence of the toxin. Cells were then stimulated for 5 mins with 10 nM dopamine (open bar) or F-12 Hams control (black bar). For all other inhibitors, AmphiAmR11-expressing CHO-K1 cells were serum starved for 2 hours including incubation with 10 µM inhibitor or F-12 Hams control for the final 20 (AG1296 and AG1478) or 30 (PP2, LY294002, Ro31-8220, U0126, U73122 and U73343) minutes. Cells were then stimulated for 5 minutes with 10 nM dopamine […] in the presence of the inhibitor. Basal measurement in the absence of dopamine and inhibitor (first black bar) and the dopamine-only response in the absence of inhibitor (first open bar) are shown. (A) Representative blots from three or four independent experiments. […] Data are expressed as the mean + SEM. n = 3 - 4. DA, dopamine; PTX, pertussis toxin; Ro, Ro 31-8220; LY, LY294002.
Figure S3. Time courses for the effect of dopamine and tyramine on ERK1/2 phosphorylation in AmphiAmR11-expressing CHO-K1 cells. (A and B) AmphiAmR11-expressing CHO-K1 cells were serum-starved for 2 hours, prior to stimulation with tyramine or dopamine at the specified concentration for the specified length of time. Equal quantities of cell lysates were separated by SDS-PAGE and analysed for pERK or tERK by Western blotting. (C and D): AmphiAmR11-expressing CHO-K1 cells were incubated with pertussis toxin (200 ng/mL) for 16 hours followed by stimulation as described for Figures A and B. (A to D) Representative blot for each condition from three to four independent experiments. (E) Summary of the quantified blots. Data are expressed as the mean ± SEM. n = 3-4. PTX, pertussis toxin; Min, minutes.

[8] = 10 µM forskolin, 100 µM IBMX, 20 min, full concentration response curves, read-out: EC50 for decrease in forskolin-stimulated cAMP levels
[9] = 10 µM forskolin, 100 µM IBMX, 20 min

T1 sequence (A0PF35 entry or part of it): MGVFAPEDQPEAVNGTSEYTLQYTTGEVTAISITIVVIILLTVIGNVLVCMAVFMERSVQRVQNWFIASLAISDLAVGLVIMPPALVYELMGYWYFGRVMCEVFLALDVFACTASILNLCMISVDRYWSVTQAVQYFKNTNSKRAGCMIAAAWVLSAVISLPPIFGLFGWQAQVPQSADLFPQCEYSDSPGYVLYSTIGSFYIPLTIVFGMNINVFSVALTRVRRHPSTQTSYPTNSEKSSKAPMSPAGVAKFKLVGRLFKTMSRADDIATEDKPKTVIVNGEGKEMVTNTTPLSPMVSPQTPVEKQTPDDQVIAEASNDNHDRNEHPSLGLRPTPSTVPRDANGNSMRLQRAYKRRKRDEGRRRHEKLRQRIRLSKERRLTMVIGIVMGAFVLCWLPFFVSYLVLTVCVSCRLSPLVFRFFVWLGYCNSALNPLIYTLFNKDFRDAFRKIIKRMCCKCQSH

CCN(CC)CCNC(=O)c1cc(Cl)c(N)cc1OC [metoclopramide, metoclopramide hydrochloride]
Block of dopamine-induced ERK1/2 activation (AmphiAmR11 [1]): no significant effect | Effect of antagonist on ERK1/2 phosphorylation in the absence of dopamine (AmphiAmR11 [2]; 1 μM antagonist): did not exhibit any agonistic properties | Block of tyramine-induced inhibition of forskolin-stimulated cAMP levels (AmphiAmR11 [3]): no significant blocking effect

NCCc1ccc(O)cc1 [tyramine, tyramine hydrochloride]
EC50 (AmphiAmR11 [4]; [8]): 7.47 nM | EC50 (AmphiAmR11 [5]; 3 minutes exposure, read-out: EC50 for calcium mobilisation (percentage of responding cells per field of view)): 767 nM | Concentrations coupling AmphiAmR11 to an increase in cAMP levels (AmphiAmR11 [6]): above 1 µM | Effect on forskolin-stimulated cAMP levels following pertussis toxin treatment (AmphiAmR11 [6]): increase in forskolin-stimulated cAMP levels | Concentration dependence of increase in forskolin-stimulated cAMP levels following pertussis toxin (AmphiAmR11 [6]): concentration-dependent effects | EC50 (AmphiAmR11 [2]): 18.2 nM | Duration of ERK1/2 phosphorylation response after the peak (AmphiAmR11 [2]): approximately half that of its peak at 5 minutes | Time of peak ERK1/2 phosphorylation (AmphiAmR11 [2]): approximately 5 minutes

NC[C@H](O)c1ccc(O)c(O)c1 [noradrenaline, (-)-noradrenaline hydrochloride]
EC50 (AmphiAmR11 [4]): 844 nM | Calcium response at 10 nM (AmphiAmR11 [5]): less effective than dopamine | Concentrations coupling AmphiAmR11 to an increase in cAMP levels (AmphiAmR11 [6]): above 1 µM | Effect on forskolin-stimulated cAMP levels following pertussis toxin treatment (AmphiAmR11 [6]): increase in forskolin-stimulated cAMP levels | Concentration dependence of increase in forskolin-stimulated cAMP levels following pertussis toxin (AmphiAmR11 [6]): concentration-dependent effects | Effect on ERK1/2 phosphorylation at 10 nM (AmphiAmR11 [2]; 5 min): not able to increase

NCCc1ccc(O)c(O)c1 [dopamine, dopamine hydrochloride]
EC50 (AmphiAmR11 [4]): 16.7 nM | EC50 (AmphiAmR11 [5]): 1.68 nM | Fold more potent than tyramine in calcium assay (AmphiAmR11 [5]; ratio of EC50 values): approximately 450 fold | EC50 (AmphiAmR11 [6]): 470 nM | Concentrations coupling AmphiAmR11 to an increase in cAMP levels (AmphiAmR11 [6]): less than 1 µM | Effect on forskolin-stimulated cAMP levels following pertussis toxin treatment (AmphiAmR11 [6]): increase in forskolin-stimulated cAMP levels | EC50 (AmphiAmR11 [2]): 1.27 nM | Duration of ERK1/2 phosphorylation response after the peak (AmphiAmR11 [2]): more sustained ERK1/2 phosphorylation response | Time of peak ERK1/2 phosphorylation (AmphiAmR11 [2]): approximately 5 minutes | Fold more potent than tyramine in MAPK assay (AmphiAmR11 [2]; ratio of EC50 values): 10 fold

CNCC(O)c1ccc(O)cc1 (racemic) [synephrine, (±)-synephrine]
EC50 (AmphiAmR11 [4]): 1650 nM | Effect on forskolin-stimulated cAMP levels following pertussis toxin treatment (AmphiAmR11 [6]): did not induce an increase | Effect on ERK1/2 phosphorylation at 10 nM (AmphiAmR11 [2]; 5 min): not able to increase

NCCc1c[nH]cn1 [histamine, histamine dihydrochloride]
Effect on forskolin-stimulated cAMP levels at 1 µM (AmphiAmR11 [4]; [9]): no effect | Effect on ERK1/2 phosphorylation at 10 nM (AmphiAmR11 [2]; 5 min): not able to increase

COc1cc2ncc(-c3ccccc3)nc2cc1OC [AG1296, tyrphostin AG1296]
Effect of inhibitor on dopamine-induced ERK1/2 phosphorylation [7]: neither inhibitor had a significant effect

CC(N)c1ccccc1 (racemic) [phenylethylamine, (±)-1-phenylethylamine]
EC50 (AmphiAmR11 [4]; [8]): 16.5 nM | Concentrations coupling AmphiAmR11 to an increase in cAMP levels (AmphiAmR11 [6]): above 1 µM | Effect on forskolin-stimulated cAMP levels following pertussis toxin treatment (AmphiAmR11 [6]): increase in forskolin-stimulated cAMP levels | Concentration dependence of increase in forskolin-stimulated cAMP levels following pertussis toxin (AmphiAmR11 [6]): concentration-dependent effects | EC50 (AmphiAmR11 [2]; 5 min stimulation, read-out: EC50 for inducing ERK1/2 phosphorylation): 57.8 nM

CNC[C@H](O)c1cccc(O)c1 [phenylephrine, (R)-(-)-phenylephrine hydrochloride]
Effect on forskolin-stimulated cAMP levels at 1 µM (AmphiAmR11 [4]; [9]): little or no effect | Effect on ERK1/2 phosphorylation at 1 µM (AmphiAmR11 [2]; 1 µM synthetic agonist, 5 min, dopamine as reference): little or no effect

NCC(O)c1ccc(O)cc1 (racemic) [octopamine, (±)-p-octopamine hydrochloride]
EC50 (AmphiAmR11 [4]; [8]): 1300 nM | Calcium response at 10 nM (AmphiAmR11 [5]): less effective than dopamine | Effect on forskolin-stimulated cAMP levels following pertussis toxin treatment (AmphiAmR11 [6]): did not induce an increase | Effect on ERK1/2 phosphorylation at 10 nM (AmphiAmR11 [2]; 5 min): not able to increase
